One molecule from patent US20050101632A1, “Method for the treatment of inflammation” (priority 2000, published 2005) can be followed below.

This data set deals with oxazolone-induced hypersensitivity reaction in oxazolone-sensitized mice. Put plainly: Oxazolone-induced delayed-type hypersensitivity (dermal sensitization) in mice. The format is in vivo, CD1 mice.

Take `C[C@]12CCC(=O)C=C1CC[C@@H]1[C@@H]2[C@@H](O)C[C@@]2(C)[C@H]1CC[C@]2(O)C(=O)CO` [hydrocortisone]: for the setting “1% hydrocortisone topical during the challenges, FIG. 7”, the “body weight (systemic effect)” value is reported as “decrease of body weight”. In addition, under “first challenge (acute inflammation), 1% topical twice daily, FIG. 4”, the “suppression of mean increase of ear thickness (MIET)” value was 74%. Moreover, the “erythema of the ear” value (first challenge, topical twice daily) was “reduced erythema of the ear”.
